According to patent US20200268720A1, “METHODS OF USE OF A CLASS IIA HDAC INHIBITOR” (GlaxoSmithKline LLC, priority 2016, published 2020):
“Also recorded” adds a separate entry of the source.

How the values were obtained:
tumor macrophages [1] = test: New vs. pre-existing macrophage dextran experiment; type: in vivo, mouse; settings: 5 days of TMP195 vs vehicle
Method: MMTV-PyMT tumor-bearing mice were injected with 0.25 mg/mouse (10 mpk) low molecular weight (10,000 MW) Alexa555-labelled dextran (Life Technologies D34679) which is readily taken up by phagocytic cells. Mice were then treated for 5 consecutive days with DMSO or TMP195. Two hours before the mice were sacrificed they were injected with 0.25 mg/mouse of another low molecular weight (10,000 MW) dextran, this time labeled with Alexa594 (Life Technologies D22913)14. Tumors were collected as described above and flow cytometry was performed. […] Mice that received only one of the dextran conjugates were used as controls for flow cytometry.

tumor macrophages [2] = test: Macrophage phagocytosis and activation in tumors (IHC, immunocytochemistry, flow cytometry); type: in vivo, mouse
Method: Tumor cells were acquired from three DMSO and three TMP195 5-day treated autochthonous MMTV-PyMT mice. CD11b^+ cells were purified using the automacs (Miltenyi) automated machine according to manufacturer's protocol. CD11b cells were labeled with a CD11b-biotin antibody (101204, BioLegend) and retrieved with ultrapure biotin beads (Miltenyi 130-105-637). Following purification, CD11b^+ cells were cytospun at 300 rpm for 5 minutes onto slides. Cells were fixed in 4% PFA/Sucrose solution for 5 minutes at RT and stored in 4° C. until ready for use. Upon experimentation, slides were permeablized with 0.03% Triton-X for 10 minutes, followed by three 5 minute rinses with 1× PBS. Samples were blocked with 10% Normal Goat Serum (NGS) in 1×PBS for 1 hour at RT. Next cells were stained for the following antibodies anti-mouse/human CD11b (101201, BioLegend), anti-mouse F4/80 (Bio-Rad, MCA497R), and Alexa Fluor 594 anti-mouse CD326 (Ep-CAM) (118222, BioLegend) at 1:100, 1:50 and 1:25 dilution in 1% NGS/1×PBS respectively overnight at 4° C. The following morning, samples were rinsed three times with 1×PBS for five minutes each, replaced with Alexa Fluor 488 goat anti-rat IgG (405418, BioLegend) at 1:200 dilution in 1% NGS, and incubated for one hour at RT. All samples were counterstained with Dapi (P36930, Life Technologies) at 1:1000 dilution in 1% NGS. Next, the samples were rinsed three times for 5 minutes each with 1×PBS. Slides were dehydrated 2× with 95% ethanol and 1× with 100% ethanol. Coverslips were mounted using Prolong Gold antifade reagent (936930, Life Technologies) and imaged with Leica SP5X: Laser Scanning Confocal microscope at 40× magnification. For analysis immunocytochemistry images were assessed by using a co-localization pipeline. In general, the pipeline identified a primary image (nucleus) and a secondary image (CD11b^+). The overlapped images were identified as a “cell”. To avoid background signal, a minimum threshold was applied for the protein of interest (CD11b, F480 and EPCAM) and only the masked objects that had fell within the given dynamic range were considered CD11b or F480 positive. Finally the overlapped image identified as “cell” was masked with the threshold image of the EPCAM. Objects identified as positive for CD11b and EPCAM or F480 and EPCAM were normalized to the number of CD11b or F480 positive cells per image, and portrayed as an average percentage. A total of 60 individual CD11b+ cells and a total of 100 individual F480^+ cells were analyzed from each treatment group.

MMTV-PyMT tumors [3] = test: Tumor cell proliferation and apoptosis (Ki67, cleaved Caspase 3 IHC, immunoblot); type: in vivo, mouse; settings: 5 days of TMP195
Method: Tumors were manually dissociated using a blade before being lysed in complete RIPA lysis buffer for 2 hours at 4° C. Complete RIPA is a combination of RIPA lysis buffer, a protease inhibitor, and Phenylmethylsulfonyl fluoride (PMSF). After incubation in RIPA, the lysates were centrifuged at 10,000 rcf for 10 minutes and the supernatant was collected for analysis. Protein concentration was measured using a Bicinchoninic acid (BCA) assay as per manufacturer's instructions. Equal protein concentrations were mixed into NuPAGE LDS sample buffer, beta mercaptoethanol (BME), and complete RIPA buffer before being heated for 10 mins at 90° C. to denature the protein. The gels were run on 15 wells 4-12% Bis-Tris Protein gels for 2 hours at 110 volts before being transferred onto a PVDF membrane. The blots were blocked in a 5% milk and PBST solution, and placed in primary antibody overnight. Blots were then incubated in secondary antibody for 1 hour before being developed with supersignal west PICO chemiluminescence substrate and FEMTO supersignal maximal sensitivity substrate. A Luminescent Image Analyzer LAS-4000 was used to develop blots. Primary antibodies purchased from Cell Signaling Technology were used: cleaved caspase 3 (D175), PARP (9542S) and Actin. Antibodies were diluted to a 1:1000 solution in 1% BSA, and sodium azide diluted to 1:500. […]

MMTV-PyMT tumors [4] = test: Single agent efficacy on tumor burden in autochthonous MMTV-PyMT mice; type: in vivo, mouse
[5] = system: MMTV-PyMT tumor transplants; test: Orthotopic transplant of MMTV-PyMT tumor pieces into wild-type FVBN or athymic nude Foxn1nu mice; type: in vivo, mouse
Method: Two transplant experiments were performed where tumors were extracted from MMTV-PyMT mice and 50-100 mm^3 pieces were inserted into the 4th mammary fat pad of either wild-type FVBN mice or athymic nude Foxn1nu mice. Five days after implant mice were randomly placed into treatment groups and treated as indicated.

MMTV-PyMT tumors [6] = test: Combination with PD-1 checkpoint blockade in MMTV-PyMT mice; type: in vivo, mouse; settings: TMP195 50 mg/kg IP daily plus 250 μg anti-PD-1
MMTV-PyMT tumors [7] = system: MMTV-PyMT tumors
Method: For all transgenic mouse experiments virgin female FVB/N transgenic mice carrying the polyoma middle T (PyMT) transgene under the control of the mammary tumor virus (MMTV) promoter were used. All mice were maintained within the Dana-Farber Cancer Center (DCFI) animal facility and all experiments involving animals were conducted in accordance with the GSK Policy on the Care, Welfare and Treatment of Laboratory Animals and were reviewed and approved by the DFCI Institutional Animal Care and Use Committee approved. MMTV-PyMT transgenic mice were obtained from The Jackson Laboratory (002374). Mice that were approximately 80 days old were enrolled into the study when their tumor burden was between 300-600 mm^3, unless otherwise noted. Although female mice have 10 mammary fat pads, tumors from mammary fat pad positions 5 and 10 were excluded from all experiments and analysis. Caliper measurements were used to calculate the tumor volume from each mammary tumor using [(Length×Width^2)/2]. The sum of the volume from each tumor on a mouse was combined to generate “total tumor burden”. At the indicated time points animals were euthanized in a CO2 chamber before performing a cardiac perfusion with normal saline. Lungs and tumors were then removed for analysis.
Tumors were extracted and fixed in 10% formalin overnight. Tumors were embedded in paraffin and sectioned at the Rodent Pathology Core at Harvard Medical School. Preceding immunohistochemical staining, tumor sections were exposed to two washes with Histo-Clear II (National Diagnostics, cat. #HS-202), two washes with 100% ethanol, and subsequent hydration with washes of 90%, 80%, 70%, and 50% ethanol. Antigen unmasking was achieved by heating sections in 10 mM sodium citrate buffer (pH 6.0). After cooling, sections were washed in dH20, incubated in 3% Hydrogen peroxide for 10 minutes at room temperature, washed in dH20 again, and then washed in 1×PBS. Antigen blocking was carried out by incubating sections in PBS buffer containing 0.5% Tween, 1% BSA plus 5% serum for 1 hour at room temperature. Sections were then stained in block buffer containing primary antibody (anti-mouse F4/80, clone BM8, BioLegend cat. #123101, 1:50; anti-mouse CD11b, clone EPR1344, ABCAM® cat. #ab133357, 1:50; anti-mouse cleaved caspase-3 (Asp175), Cell Signaling Technology cat. #9661S, 1:300; anti-mouse CD34, clone MEC14.7, BioLegend cat. #119301, 1:100; anti-mouse Ki-67, clone D3B5, BioLegend cat. #12202S, 1:400; CD40 Abcam (ab13545) 1:200); 1:200 Mac-2 (BioLegend cat. #125403, clone M3/38) overnight in a wet chamber at 4° C. in the dark. The following day, sections were washed three times in 1×PBS and stained with secondary biotinylated antibody in PBS block buffer for 1 hour at room temperature. Sections were washed three times with 1×PBS and Elite Vectastain ABC Kit (Vector Laboratories, PK-6100) was applied for 30 minutes per manufacturer's instructions at room temperature in the dark. Sections were washed with 1×PBS, developed with DAB reagent (Peroxidase Substrate Kit, Vector Laboratories, cat. #5K4100), and counterstained with hematoxylin. Sections were then exposed to two washes with dH20, one wash with 1×PBS, and subsequent washes of increasing ethanol concentration for dehydration followed by incubation in Histo-Clear II. Slides were mounted with VectaMount Permanent Mounting Medium (Vector Laboratories, H-5000) and No. 1 glass coverslips (Denville Scientific, cat. #M1100-02) and allowed to cure for 24 hours. Sections were viewed with an Olympus BX43 Trinocular Microscope. For all IHC quantitation ten randomly selected fields from at least 4 different tumors in each treatment group were used to quantitate the percent of tissue positive for each marker using ImageJ software^32. Images were converted to a greyscale red-green-blue (RGB) stack. Positive stain in the “blue” greyscale image was quantified at the appropriate threshold as % total image area positive for stain.

[8] = system: human monocytes, T or B cells; settings: cited from earlier work
[9] = 50 mg/kg TMP195 IP daily, 5 days vs DMSO

CC(C)(CNC(=O)c1cccc(-c2noc(C(F)(F)F)n2)c1)c1coc(-c2ccccc2)n1 [TMP195, N-(2-methyl-2-(2-phenyloxazol-4-yl)propyl)-3-(5-(trifluoromethyl)-1,2,4-oxadiazol-3-yl)benzamide]
number of new macrophages in the tumor (tumor macrophages [1]): increases
number of pre-existing macrophages in the tumor (tumor macrophages [1]): not and without affecting
apoptotic bodies within tumor macrophages (cleaved caspase 3 IHC) (tumor macrophages [2]; 5 days of TMP195): appearance of apoptotic bodies
intracellular EPCAM in F480+ and CD11b+ cells (phagocytosed breast tumor cells) (tumor macrophages [2]; 5 days of TMP195): co-stain as EPCAM^+
cells resembling tingible body macrophages (F480 IHC) (tumor macrophages [2]; 5 days of TMP195 vs vehicle): marked appearance
proportion of F480+ and CD11b+ cells that express CD40 (tumor macrophages [2]; 5 days of TMP195 vs vehicle): higher proportion
cell death in the tumor (cleaved Caspase 3, PARP cleavage) (MMTV-PyMT tumors [3]): increase in cell death
proliferating tumor cells (Ki67) (MMTV-PyMT tumors [3]): significant decrease
rate of tumor growth (MMTV-PyMT tumors [4]; total tumor burden 150-800 mm^3 at start, 13 days, 50 mg/kg TMP195 IP daily vs DMSO): significantly reduced
tumor burden, single agent (MMTV-PyMT tumors [4]; total tumor burden 200-600 mm^3 at start, 50 mg/kg TMP195 IP daily vs vehicle): significant reduction
tumor burden in wild-type FVBN recipients ([5]; treated daily for 16 days, 50 mg/kg TMP195 vs DMSO): tumor burden was reduced
transplant growth in T cell deficient athymic nude (Foxn1nu) recipient mice ([5]; treated for 20 days): failed to inhibit transplant growth
tumor burden, TMP195 added to the anti-PD-1 regimen (MMTV-PyMT tumors [6]): significantly greater reduction in tumor burden than TMP195 alone
proportion of myeloid (CD11b+) and mature macrophages (Mac-2+, CD115+, F480+) in tumors (MMTV-PyMT tumors [7]; [9]): increased proportion
proportion of other tumor infiltrating immune cells examined (MMTV-PyMT tumors [7]; [9]): without affecting
MHCII+CD11bhi (MTM) cell population in tumors (MMTV-PyMT tumors [7]; 5 days of TMP195 treatment): increase
proportion of pro-tumor TAMs (MHCII+CD11blo) (MMTV-PyMT tumors [7]; 5 days of TMP195 treatment): decrease; also recorded: significant reduction
cytotoxic T lymphocytes in tumors (Granzyme B+ of CD45+CD3+CD8+ cells) (MMTV-PyMT tumors [7]; 5 days of TMP195 vs vehicle): significantly increases; also recorded: increase
proportion of CD8+ T cells in the tumor (MMTV-PyMT tumors [7]; TMP195 treatment): does not change
gene expression of monocytes and lymphocytes ([8]; previous report): altered monocyte gene expression without affecting that of lymphocytes
direct cytotoxicity to human monocytes, T or B cells ([8]; previously reported): not directly cytotoxic
